# Assay results: PMC5218480 (PLoS ONE, 2017)
# System: MV-4-11 cells
# Experiment: Gene expression microarray analysis (Affymetrix PrimeView) and GSEA
# Assay type: cell-based, human
# Set-up: RFU PODN (11730768_x_at) / Fold change /veh PODN (11730768_x_at) / RFU LINC00158 (11744669_a_at) / Fold change /veh LINC00158 (11744669_a_at) / RFU DUSP10 (11751237_a_at) / Fold change /veh DUSP10 (11751237_a_at) / RFU ID3 (11757404_x_at) / Fold change /veh ID3 (11757404_x_at) / RFU PLEKHG5 (11737974_s_at) / Fold change /veh PLEKHG5 (11737974_s_at) / RFU LRRC4B (11730491_at) / Fold change /veh LRRC4B (11730491_at) / RFU GIMAP4 (11747438_a_at) / Fold change /veh GIMAP4 (11747438_a_at) / RFU KRT8 (11758183_x_at) / Fold change /veh KRT8 (11758183_x_at) / RFU CNN1 (11734310_a_at) / Fold change /veh CNN1 (11734310_a_at) / RFU VPS37D (11726825_at) / Fold change /veh VPS37D (11726825_at) / RFU C10orf10 (11716522_x_at) / Fold change /veh C10orf10 (11716522_x_at) / RFU KIR2DL2 /// KIR2DL4 /// KIR2DL5A /// KIR2DL5B /// KIR2DS1 /// KIR2DS2 /// KIR2DS3 /// KIR2DS4 /// KIR3DL3 /// KIR3DL3 /// KIR3DS1 (11738374_at) / Fold change /veh KIR2DL2 /// KIR2DL4 /// KIR2DL5A /// KIR2DL5B /// KIR2DS1 /// KIR2DS2 /// KIR2DS3 /// KIR2DS4 /// KIR3DL3 /// KIR3DL3 /// KIR3DS1 (11738374_at) / RFU C1QL1 (11718748_at) / Fold change /veh C1QL1 (11718748_at) / RFU TMPRSS4 (11747572_a_at) / Fold change /veh TMPRSS4 (11747572_a_at) / RFU HAMP (11756126_x_at) / Fold change /veh HAMP (11756126_x_at) / RFU RNFT2 (11725882_a_at) / Fold change /veh RNFT2 (11725882_a_at) / RFU NR4A2 (11747474_a_at) / Fold change /veh NR4A2 (11747474_a_at) / RFU ABCC12 (11746883_a_at) / Fold change /veh ABCC12 (11746883_a_at) / RFU TMEM136 (11760407_x_at) / Fold change /veh TMEM136 (11760407_x_at) / RFU CLDN22 /// WWC2 (11732394_at) / Fold change /veh CLDN22 /// WWC2 (11732394_at) / RFU HLA-DPB1 (11760878_x_at) / Fold change /veh HLA-DPB1 (11760878_x_at) / RFU SPINT1 (11716480_a_at) / Fold change /veh SPINT1 (11716480_a_at) / RFU GAP43 (11754022_s_at) / Fold change /veh GAP43 (11754022_s_at) / RFU A4GNT (11735810_at) / Fold change /veh A4GNT (11735810_at) / RFU PRB3 (11715151_x_at) / Fold change /veh PRB3 (11715151_x_at) / RFU TUBB4B (11761932_at) / Fold change /veh TUBB4B (11761932_at) / RFU CAPN14 (11732068_a_at) / Fold change /veh CAPN14 (11732068_a_at) / RFU TMCC2 (11721928_a_at) / Fold change /veh TMCC2 (11721928_a_at) / RFU IRGQ (11745062_a_at) / Fold change /veh IRGQ (11745062_a_at) / RFU FAM174B (11720279_a_at) / Fold change /veh FAM174B (11720279_a_at) / RFU TMPRSS4 (11748680_a_at) / Fold change /veh TMPRSS4 (11748680_a_at) / RFU FAM212B (11763350_a_at) / Fold change /veh FAM212B (11763350_a_at) / RFU PLEKHG5 (11743358_a_at) / Fold change /veh PLEKHG5 (11743358_a_at) / RFU ZSCAN30 (11745921_a_at) / Fold change /veh ZSCAN30 (11745921_a_at) / RFU CMKLR1 (11741424_a_at) / Fold change /veh CMKLR1 (11741424_a_at) / RFU LOC101060620 /// MAPK8IP1 (11723275_at) / Fold change /veh LOC101060620 /// MAPK8IP1 (11723275_at) / RFU SPTSSB (11747773_x_at) / Fold change /veh SPTSSB (11747773_x_at) / RFU PRSS12 (11739890_at) / Fold change /veh PRSS12 (11739890_at) / RFU BIN1 (11741810_x_at) / Fold change /veh BIN1 (11741810_x_at) / RFU WNT11 (11732464_a_at) / Fold change /veh WNT11 (11732464_a_at) / RFU C10orf10 (11716521_a_at) / Fold change /veh C10orf10 (11716521_a_at) / RFU C5orf56 (11738089_at) / Fold change /veh C5orf56 (11738089_at) / RFU CYB561 (11721691_x_at) / Fold change /veh CYB561 (11721691_x_at) / RFU ANKRD19P (11752326_a_at) / Fold change /veh ANKRD19P (11752326_a_at) / RFU OR2T12 /// OR2T33 /// OR2T8 (11738714_s_at) / Fold change /veh OR2T12 /// OR2T33 /// OR2T8 (11738714_s_at) / RFU VCAN (11748164_a_at) / Fold change /veh VCAN (11748164_a_at) / RFU JSRP1 (11732532_at) / Fold change /veh JSRP1 (11732532_at) / RFU KRTAP10-11 (11738290_x_at) / Fold change /veh KRTAP10-11 (11738290_x_at) / RFU MYO3A (11730013_a_at) / Fold change /veh MYO3A (11730013_a_at) / RFU EBF3 (11725865_a_at) / Fold change /veh EBF3 (11725865_a_at) / RFU CAMK2N1 (11719241_x_at) / Fold change /veh CAMK2N1 (11719241_x_at) / RFU C5orf56 (11738088_a_at) / Fold change /veh C5orf56 (11738088_a_at) / RFU OLFML3 (11715873_a_at) / Fold change /veh OLFML3 (11715873_a_at) / RFU LOC100653217 /// NTM (11731650_a_at) / Fold change /veh LOC100653217 /// NTM (11731650_a_at) / RFU MAPK11 (11762145_a_at) / Fold change /veh MAPK11 (11762145_a_at) / RFU FIZ1 (11724087_x_at) / Fold change /veh FIZ1 (11724087_x_at) / RFU OASL (11726364_x_at) / Fold change /veh OASL (11726364_x_at) / RFU SOX15 (11748057_x_at) / Fold change /veh SOX15 (11748057_x_at) / RFU CD79A (11719716_a_at) / Fold change /veh CD79A (11719716_a_at) / RFU HIST1H1D (11736915_at) / Fold change /veh HIST1H1D (11736915_at) / RFU CASKIN2 (11723855_a_at) / Fold change /veh CASKIN2 (11723855_a_at) / RFU LOC730098 (11760151_x_at) / Fold change /veh LOC730098 (11760151_x_at) / RFU OR4N2 (11742367_at) / Fold change /veh OR4N2 (11742367_at) / RFU PRRT2 (11749266_a_at) / Fold change /veh PRRT2 (11749266_a_at) / RFU SNX32 (11753110_a_at) / Fold change /veh SNX32 (11753110_a_at) / RFU CDHR5 (11726645_a_at) / Fold change /veh CDHR5 (11726645_a_at) / RFU RCAN1 (11760418_a_at) / Fold change /veh RCAN1 (11760418_a_at) / RFU FAM167A (11723789_a_at) / Fold change /veh FAM167A (11723789_a_at) / RFU FAM26E (11764081_at) / Fold change /veh FAM26E (11764081_at) / RFU ISYNA1 (11749810_s_at) / Fold change /veh ISYNA1 (11749810_s_at) / RFU ACY1 (11761880_at) / Fold change /veh ACY1 (11761880_at) / RFU 11764098_at / Fold change /veh 11764098_at / RFU SAMD14 (11745864_x_at) / Fold change /veh SAMD14 (11745864_x_at) / RFU NPB (11741838_a_at) / Fold change /veh NPB (11741838_a_at) / RFU TMPRSS6 (11731388_a_at) / Fold change /veh TMPRSS6 (11731388_a_at) / RFU KRTAP10-2 (11738614_at) / Fold change /veh KRTAP10-2 (11738614_at) / RFU ARHGAP8 /// PRR5-ARHGAP8 (11727945_x_at) / Fold change /veh ARHGAP8 /// PRR5-ARHGAP8 (11727945_x_at) / RFU KRTAP5-7 /// NADSYN1 (11734609_at) / Fold change /veh KRTAP5-7 /// NADSYN1 (11734609_at) / RFU RASL12 (11751679_a_at) / Fold change /veh RASL12 (11751679_a_at) / RFU CDKN2B (11736163_a_at) / Fold change /veh CDKN2B (11736163_a_at) / RFU PRF1 (11729649_at) / Fold change /veh PRF1 (11729649_at) / RFU, ZNF638 /// ZNF638-IT1 / Fold change vs veh, ZNF638 /// ZNF638-IT1 / RFU, PANK3 / Fold change vs veh, PANK3 / RFU, SH3YL1 / Fold change vs veh, SH3YL1 / RFU, ZEB2 / Fold change vs veh, ZEB2 / RFU, NRIP1 / Fold change vs veh, NRIP1 / RFU, PTTG1IP / Fold change vs veh, PTTG1IP / RFU, CAPN2 / Fold change vs veh, CAPN2 / RFU, MED14 / Fold change vs veh, MED14 / RFU, SNORA58 / Fold change vs veh, SNORA58 / RFU, C1orf63 / Fold change vs veh, C1orf63 / RFU, LRRFIP1 / Fold change vs veh, LRRFIP1 / RFU, NDUFAF7 / Fold change vs veh, NDUFAF7 / RFU, SLC12A2 / Fold change vs veh, SLC12A2 / RFU, IBTK / Fold change vs veh, IBTK / RFU, ESF1 / Fold change vs veh, ESF1 / Fold change vs veh, TMEM50B / RFU, TAOK1 / Fold change vs veh, TAOK1 / RFU, ACBD3 / Fold change vs veh, ACBD3 / RFU, TMA16 / Fold change vs veh, TMA16 / RFU, RWDD3 / Fold change vs veh, RWDD3 / RFU, BCAT1 / Fold change vs veh, BCAT1 / RFU, EDEM3 / Fold change vs veh, EDEM3 / RFU, TMEM33 / Fold change vs veh, TMEM33 / RFU, WDR75 / Fold change vs veh, WDR75 / RFU, AHCTF1 / Fold change vs veh, AHCTF1 / RFU, TFRC / Fold change vs veh, TFRC / RFU, ZDHHC17 / Fold change vs veh, ZDHHC17 / RFU, NOM1 / Fold change vs veh, NOM1 / RFU, ARL8B / Fold change vs veh, ARL8B / RFU, ZBTB11 / Fold change vs veh, ZBTB11 / RFU, TAMM41 / Fold change vs veh, TAMM41 / RFU, KIAA1704 /// LOC100996395 / Fold change vs veh, KIAA1704 /// LOC100996395 / RFU, ING1 / Fold change vs veh, ING1 / RFU, TRMT61B / Fold change vs veh, TRMT61B / RFU, FUBP3 / Fold change vs veh, FUBP3 / RFU, TP53 / Fold change vs veh, TP53 / RFU, TNKS2 / Fold change vs veh, TNKS2 / RFU, ZFP14 / Fold change vs veh, ZFP14 / RFU, ACTR2 / Fold change vs veh, ACTR2 / RFU, PPP3R1 / Fold change vs veh, PPP3R1 / RFU, PIK3R1 / Fold change vs veh, PIK3R1 / RFU, HNRNPA1 / Fold change vs veh, HNRNPA1 / RFU, RNF170 / Fold change vs veh, RNF170 / RFU, ZNF28 / Fold change vs veh, ZNF28 / RFU, RNGTT / Fold change vs veh, RNGTT / RFU, OGT / Fold change vs veh, OGT / RFU, BRD1 / Fold change vs veh, BRD1 / RFU, MARS / Fold change vs veh, MARS / RFU, ZNF655 / Fold change vs veh, ZNF655 / RFU, FAHD1 / Fold change vs veh, FAHD1 / RFU, BDP1 / Fold change vs veh, BDP1 / RFU, LRRCC1 / Fold change vs veh, LRRCC1 / RFU, ARID1A / Fold change vs veh, ARID1A / RFU, ZNF146 / Fold change vs veh, ZNF146 / RFU, ZNF330 / Fold change vs veh, ZNF330 / RFU, GPN3 / Fold change vs veh, GPN3 / RFU, C9orf123 / Fold change vs veh, C9orf123 / RFU, N4BP2L2 / Fold change vs veh, N4BP2L2 / RFU, ARFIP1 / Fold change vs veh, ARFIP1 / RFU, FAM179B / Fold change vs veh, FAM179B / RFU, BCL10 / Fold change vs veh, BCL10 / RFU, UHRF1BP1L / Fold change vs veh, UHRF1BP1L / RFU, BET1 / Fold change vs veh, BET1 / RFU, CNOT2 / Fold change vs veh, CNOT2 / RFU, ZNF268 / Fold change vs veh, ZNF268 / Fold change vs veh, ZNF507 / RFU, DGCR2 / Fold change vs veh, DGCR2 / RFU, WDSUB1 / Fold change vs veh, WDSUB1 / Fold change vs veh, HSP90B1 /// MIR3652 / RFU, ADSS / Fold change vs veh, ADSS / RFU, GK / Fold change vs veh, GK / RFU, ZNF148 / Fold change vs veh, ZNF148 / RFU, TAF9 / Fold change vs veh, TAF9 / RFU, SLC1A5 / Fold change vs veh, SLC1A5 / RFU, SLMO2 / Fold change vs veh, SLMO2 / RFU, ABCC4 / Fold change vs veh, ABCC4 / RFU, LOC101060439 /// RAP1B / Fold change vs veh, LOC101060439 /// RAP1B / RFU, RFX7 / Fold change vs veh, RFX7 / RFU, GTPBP10 / Fold change vs veh, GTPBP10 / RFU, CNEP1R1 / Fold change vs veh, CNEP1R1 / RFU, BIVM-ERCC5 /// ERCC5 / Fold change vs veh, BIVM-ERCC5 /// ERCC5 / RFU, ILF3 / Fold change vs veh, ILF3 / RFU 11762660_at / Fold change /veh 11762660_at / RFU VCAN (11757783_s_at) / Fold change /veh VCAN (11757783_s_at) / RFU DDX43 (11728927_at) / Fold change /veh DDX43 (11728927_at) / RFU KRT8 (11758188_x_at) / Fold change /veh KRT8 (11758188_x_at) / RFU NKD1 (11759106_at) / Fold change /veh NKD1 (11759106_at) / RFU SRD5A1 (11742802_a_at) / Fold change /veh SRD5A1 (11742802_a_at) / RFU TPSAB1 /// TPSB2 (11721975_s_at) / Fold change /veh TPSAB1 /// TPSB2 (11721975_s_at) / RFU GSTM3 (11746129_a_at) / Fold change /veh GSTM3 (11746129_a_at) / RFU IL23R (11737362_x_at) / Fold change /veh IL23R (11737362_x_at) / RFU TMEM51 (11727254_a_at) / Fold change /veh TMEM51 (11727254_a_at) / RFU PIWIL2 (11732686_x_at) / Fold change /veh PIWIL2 (11732686_x_at) / RFU ORM1 (11744905_x_at) / Fold change /veh ORM1 (11744905_x_at) / RFU CCDC152 (11743942_at) / Fold change /veh CCDC152 (11743942_at) / RFU ECM1 (11717891_a_at) / Fold change /veh ECM1 (11717891_a_at) / RFU IL23R (11748794_a_at) / Fold change /veh IL23R (11748794_a_at) / RFU TNFAIP8L3 (11732012_x_at) / Fold change /veh TNFAIP8L3 (11732012_x_at) / RFU MBOAT4 (11741988_at) / Fold change /veh MBOAT4 (11741988_at) / RFU 11764193_at / Fold change /veh 11764193_at / RFU TMEM53 (11763286_at) / Fold change /veh TMEM53 (11763286_at) / RFU MAGEB2 (11727129_at) / Fold change /veh MAGEB2 (11727129_at) / RFU TMEM200A (11744735_a_at) / Fold change /veh TMEM200A (11744735_a_at) / RFU CCDC152 (11751479_a_at) / Fold change /veh CCDC152 (11751479_a_at) / RFU FAM211A (11726209_a_at) / Fold change /veh FAM211A (11726209_a_at) / RFU RGS16 (11746705_a_at) / Fold change /veh RGS16 (11746705_a_at) / RFU VCAN (11755009_s_at) / Fold change /veh VCAN (11755009_s_at) / RFU RHOB (11743442_s_at) / Fold change /veh RHOB (11743442_s_at) / RFU RGS16 (11720943_a_at) / Fold change /veh RGS16 (11720943_a_at) / RFU RGS16 (11720944_at) / Fold change /veh RGS16 (11720944_at) / RFU, VPS4B / Fold change vs veh, VPS4B / RFU, CREB1 / Fold change vs veh, CREB1 / RFU, DNAJC13 / Fold change vs veh, DNAJC13 / RFU, GNAQ / Fold change vs veh, GNAQ / RFU, CDK5R1 / Fold change vs veh, CDK5R1 / RFU, ZRANB3 / Fold change vs veh, ZRANB3 / RFU, CUL4A / Fold change vs veh, CUL4A / RFU, CCNY / Fold change vs veh, CCNY / RFU, UFL1 / Fold change vs veh, UFL1 / RFU, COG3 / Fold change vs veh, COG3 / RFU, DIAPH2 / Fold change vs veh, DIAPH2 / RFU, SKA2 / Fold change vs veh, SKA2 / RFU, AFF3 / Fold change vs veh, AFF3 / RFU, LMF1 / Fold change vs veh, LMF1 / RFU, IPO11 / Fold change vs veh, IPO11 / RFU, DFFB / Fold change vs veh, DFFB / RFU, FOXP1 / Fold change vs veh, FOXP1 / RFU, CARD8 / Fold change vs veh, CARD8 / RFU, STRN3 / Fold change vs veh, STRN3 / RFU, ADK / Fold change vs veh, ADK / RFU, RASSF2 / Fold change vs veh, RASSF2 / RFU, WIPF1 / Fold change vs veh, WIPF1 / RFU, LARP1B / Fold change vs veh, LARP1B / RFU, RASA1 / Fold change vs veh, RASA1 / RFU, RB1 / Fold change vs veh, RB1 / RFU, PPFIA1 / Fold change vs veh, PPFIA1 / RFU, MAT2A / Fold change vs veh, MAT2A / RFU, CCT5 / Fold change vs veh, CCT5 / RFU, WDR92 / Fold change vs veh, WDR92 / RFU, CUX1 / Fold change vs veh, CUX1 / RFU, TTC7A / Fold change vs veh, TTC7A / RFU, TMEM135 / Fold change vs veh, TMEM135 / RFU, DEPTOR / Fold change vs veh, DEPTOR / RFU, CPM / Fold change vs veh, CPM / RFU, DNAJB6 / Fold change vs veh, DNAJB6 / RFU, CACNA2D3 / Fold change vs veh, CACNA2D3 / RFU, DTX4 / Fold change vs veh, DTX4 / RFU, TFCP2 / Fold change vs veh, TFCP2 / RFU, GMCL1 /// GMCL1P1 / Fold change vs veh, GMCL1 /// GMCL1P1 / RFU, AEBP2 / Fold change vs veh, AEBP2 / RFU, SNHG1 /// SNORD22 /// SNORD25 /// SNORD26 /// SNORD27 /// SNORD28 /// SNORD29 /// SNORD31 / Fold change vs veh, SNHG1 /// SNORD22 /// SNORD25 /// SNORD26 /// SNORD27 /// SNORD28 /// SNORD29 /// SNORD31 / Fold change (Aza/veh), C12orf56 (ProbeSet 11735607_a_at) / Fold change (ACY-1035/veh), C12orf56 (ProbeSet 11735607_a_at) / Fold change (Aza/veh), FGFR1OP (ProbeSet 11751329_s_at) / Fold change (ACY-1035/veh), FGFR1OP (ProbeSet 11751329_s_at) / Fold change (Aza/veh), VPS36 (ProbeSet 11739960_a_at) / Fold change (ACY-1035/veh), VPS36 (ProbeSet 11739960_a_at) / RFU SYPL1 (11715823_x_at) / Fold change /veh SYPL1 (11715823_x_at) / RFU IGFBP7 (11715501_s_at) / Fold change /veh IGFBP7 (11715501_s_at) / RFU REEP3 (11722064_at) / Fold change /veh REEP3 (11722064_at) / RFU IGLL1 (11728026_x_at) / Fold change /veh IGLL1 (11728026_x_at): dose or concentration left out as unconfirmed
# Settings: MV-4-11 cells, 48 hours
compound,measurement,value
Nc1ccc(-c2cccs2)cc1NC(=O)c1ccc2c(c1)cc(C1CC1)n2CCN1CCOCC1 [ACY-1035],RFU PRF1 (11729649_at),18.67 RFU
